Patent publication US7595320B2, “Hydrazinocarbonyl-thieno[2,3-C]pyrazoles, process for preparing them, compositions containing them and use thereof” (Aventis Pharma S.A., priority 2005, dated 2009)
pIC50: −log10 of the molar value.

Key:
Type in all cases: biochemical
Aurora1 = target: T1, Aurora1 (Homo sapiens, UniProt Q96GD4); test: Aurora1 enzymatic test, NuMA phosphorylation with [33P]ATP, Flashplate; conditions: Aurora-B/INCENP-C3 recombinant complex, 1 μM ATP
T1 construct: His tag (N); made in house
Procedure: (§1) The inhibitory effect of compounds with respect to the kinases Aurora1 and Aurora2 is determined by means of an enzymatic test using radioactivity detection.
(§2) The kinase activity of Aurora1 and Aurora2 is evaluated via the phosphorylation of the substrate Numa-histidine in the presence of radiolabelled ATP ([^33P]ATP) using 96-well Flashplate plates in which the nickel chelate is bound to the surface of the microplate. The amount of ^33P phosphate incorporated into the NuMA substrate is proportional to the activity of the enzyme Aurora1 or Aurora2.
Aurora1: Aurora-B/INCENP-C3 recombinant complex, purified to about 50%, the N-terminal end of Aurora-B of which has been labeled with histidine.
(§3) NuMA (nuclear protein that combines with the mitotic apparatus): 424-amino acid fragment, expressed in E. coli, the N-terminal end of which has been labeled with histidine, and used as substrate for the two Aurora enzymes.
(§4) The microplates used are 96-well Flash-Plate plates, nickel chelate (Perkin-Elmer, model SMP107).
(§5) The products to be evaluated are incubated in a reaction volume of 100 μL per well, in the presence of 10 nM of Aurora1 or Aurora2, 500 nM of NuMA substrate in a buffer composed of 50 mM Tris/HCl (pH 7.5), 50 mM NaCl, 5 mM MgCl2 (Aurora-B) or 10 mM MgCl2 (Aurora-A) and 1 mM DTT, at 37° C.
(§6) 80 μL of enzyme/substrate incubation buffer are distributed in each well, followed by 10 μL of product to be evaluated, at variable concentrations. The reaction is initiated by adding 1 μM final of ATP containing 0.2 μCi of [^33P]ATP (10 μL). After incubating for 30 minutes, the reaction is quenched by simple removal of the reaction buffer and each well is washed twice with 300 μl of Tris/HCl buffer. The radioactivity is then measured in each well using a Packard, Top-Count model scintillation machine.
(§7) The control enzymatic activity of Aurora is expressed by the number of counts per minute obtained over 30 minutes after subtracting the background noise (reaction mixture containing no enzyme). The evaluation of the various test products is expressed as a percentage of inhibition of the Aurora activity relative to the control.

Aurora2 = target: T2, Aurora2 (Homo sapiens, UniProt O14965); test: Aurora2 enzymatic test, NuMA phosphorylation with [33P]ATP, Flashplate; conditions: whole recombinant protein, 1 μM ATP
T2 construct: Aurora2: whole recombinant protein comprising an N-terminal histidine tail; His tag (N); made in house; host or cells: E. coli
T2 sequence (O14965 1-403): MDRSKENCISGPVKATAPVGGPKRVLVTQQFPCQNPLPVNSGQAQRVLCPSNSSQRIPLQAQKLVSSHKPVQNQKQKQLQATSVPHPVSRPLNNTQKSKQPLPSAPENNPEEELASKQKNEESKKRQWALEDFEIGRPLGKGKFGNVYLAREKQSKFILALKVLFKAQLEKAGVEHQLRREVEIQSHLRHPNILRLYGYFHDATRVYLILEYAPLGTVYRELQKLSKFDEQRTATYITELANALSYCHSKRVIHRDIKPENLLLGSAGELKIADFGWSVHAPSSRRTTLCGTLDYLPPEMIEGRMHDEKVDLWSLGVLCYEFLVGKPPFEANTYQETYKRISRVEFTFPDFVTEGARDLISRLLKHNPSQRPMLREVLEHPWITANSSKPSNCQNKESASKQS
Procedure: as §1, §2
Aurora2: whole recombinant protein comprising an N-terminal histidine tail, was expressed in E. coli and purified to more than 82%.
as §3, §4, §5, §6, §7

CDK2/cycline E = target: T3, CDK2/cycline E (Homo sapiens, UniProt P24941); test: CDK2/cyclineE Flashplate test in 96-well format; conditions: CDK2/cycline E complex, 1 μM ATP
T3 construct: made in house; host or cells: Sf21 insect cells (baculovirus coinfection)
Procedure: Two recombinant baculoviruses bearing the human sequences coding, respectively, for CDK2 and cyclineE (the latter bearing a C-terminal hexahistidine tag) are used to coinfect Sf21 insect cells. Two to three days after the start of coinfection, the cells are harvested by centrifugation and then stored at −40° C. until the time of use.
A format in streptavidin-coated 96-well plates is used to test the activity of the compounds on the kinase activity of CDK2/cycline E.
To perform this test, the biotinylated peptide substrate, a fragment of the protein pRb (biotinyl-[…]-OH), is dissolved at a concentration of 1 mM in kinase buffer (HEPES/NaOH 50 mM, NaCl 1 mM, MgCl2 5 mM, pH 7.5) in order to constitute a stock solution stored at −20° C. in the form of 110 μL aliquots. On the day of the experiment, an aliquot of this solution is thawed and diluted in kinase buffer containing 1 mM of dithiothreitol, added to the buffer extemporaneously, in order to obtain a concentration of 14.3 μM. 70 μL of this solution are added to each well of the Flashplate in order to obtain a final substrate concentration of 10 μM during the enzymatic reaction performed in a final volume of the reaction medium of 100 μL (cf. below).
Intermediate dilutions of inhibitors (products of the invention) at various concentrations are prepared in DMSO from stock solutions at 10 mM in separate tubes. Dilutions at 1000 μM, 333.3 μM, 111.1 μM, 37.03 μM, 12.35 μM, 4.11 μM and 1.37 μM are thus prepared. One μL of each of these solutions (or 1 μL of DMSO for the controls) is transferred into the wells of the test plate.
19 μl of a solution of a mixture of adenosine triphosphate (ATP) and of ATPγ^33P in kinase buffer at a total concentration of 5.26 μM of ATP and 52.6 μCi/ml of ^33P are then added to each well. The enzymatic reaction is initiated by adding 10 μL per well of a 200 nM solution of CDK2/cycline E in kinase buffer containing 1 mM of dithiothreitol (or 10 μL of kinase buffer containing 1 mM of dithiothreitol for the reaction blanks).
After addition of each of the reagents, the final volume of each well is 100 μL, the final concentration of substrate is 10 μM, the final inhibitor concentrations are 10 μM, 3.33 μM, 1.11 μM, 0.37 μM, 0.123 μM, 0.041 μM and 0.014 μM (according to the concentration of the intermediate dilution), the final ATP concentration is 1 μM, the final amount of ^33P is 1 μCi/well, and the final concentration of CDK2/cycline E complex is 20 nM.
After addition of all of the reagents, the test plate is incubated at 30° C. with orbital shaking at 650 rpm.
When the incubation is complete, the plate is washed three times with 300 μL per well of PBS (phosphate-buffered saline, pH=7.4, without calcium or magnesium, reference 10010-015, Gibco BRL). The incorporation of ^33P to the peptide is quantified by scintillation counting with a Packard Topcount.NXT machine.

Tie2 = target: T4, Tie2 (Homo sapiens, UniProt Q02763); test: Tie2 kinase test, phosphorylation of PLC with GST-Tie2; conditions: GST-Tie2 intracellular domain 776-1124
T4 construct: amino acids of the intracellular domain 776-1124; made in house; host or cells: baculovirus expression (pFastBacGT vector)
Procedure: The coding sequence of human Tie2 corresponding to the amino acids of the intracellular domain 776-1124 was generated by PCR using the cDNA isolated from a human placenta as a model. This sequence was introduced into a pFastBacGT baculovirus expression vector in the form of a GST fusion protein.
The inhibitory effect of the molecules is determined in a test of phosphorylation of PLC with Tie2 in the presence of GST-Tie2 purified to about 80% homogeneity. The substrate is composed of the SH2-SH3 fragments of PLC expressed in the form of a GST fusion protein.
The kinase activity of Tie2 is measured in a MOPS 20 mM pH 7.2 buffer, containing 10 mM MgCl2, 10 mM MnCl2, 1 mM DTT, 10 mM of glycerophosphate. In a 96-well FlashPlate plate maintained on ice, a reaction mixture is deposited, composed of 70 μL of kinase buffer containing 100 ng of enzyme GST-Tie2 per well. Next, 10 μL of the test molecule diluted in DMSO to a maximum concentration of 10% are added. For a given concentration, each measurement is performed four times. The reaction is initiated by adding 20 μL of solution containing 2 μg of GST-PLC, 2 μm of cold ATP and 1 μCi of ^33P[ATP]. After incubation for one hour at 37° C., the reaction is stopped by adding 1 volume (100 μl) of 200 mM EDTA. After removal of the incubation buffer, the wells are washed three times with 300 μL of PBS. The radioactivity is measured on a MicroBeta1450 Wallac.
The inhibition of the Tie2 activity is calculated and expressed as a percentage of inhibition relative to the control activity determined in the absence of compound.

T1 sequence (Q96GD4 whole entry, species assumed): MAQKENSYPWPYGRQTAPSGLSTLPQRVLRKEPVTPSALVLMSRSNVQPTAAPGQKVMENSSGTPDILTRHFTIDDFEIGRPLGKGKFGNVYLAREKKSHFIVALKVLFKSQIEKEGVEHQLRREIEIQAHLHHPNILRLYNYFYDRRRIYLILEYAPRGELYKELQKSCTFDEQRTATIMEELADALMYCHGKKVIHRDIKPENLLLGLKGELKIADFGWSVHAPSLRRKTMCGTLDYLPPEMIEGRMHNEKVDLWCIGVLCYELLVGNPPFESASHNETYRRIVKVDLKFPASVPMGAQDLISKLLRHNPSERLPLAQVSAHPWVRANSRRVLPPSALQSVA
T1 sequence (Q9NQS7 835-903 partner limits assumed, species assumed): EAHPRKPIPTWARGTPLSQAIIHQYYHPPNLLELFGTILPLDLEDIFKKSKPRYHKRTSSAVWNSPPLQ
T4 sequence (Q02763 776-1124): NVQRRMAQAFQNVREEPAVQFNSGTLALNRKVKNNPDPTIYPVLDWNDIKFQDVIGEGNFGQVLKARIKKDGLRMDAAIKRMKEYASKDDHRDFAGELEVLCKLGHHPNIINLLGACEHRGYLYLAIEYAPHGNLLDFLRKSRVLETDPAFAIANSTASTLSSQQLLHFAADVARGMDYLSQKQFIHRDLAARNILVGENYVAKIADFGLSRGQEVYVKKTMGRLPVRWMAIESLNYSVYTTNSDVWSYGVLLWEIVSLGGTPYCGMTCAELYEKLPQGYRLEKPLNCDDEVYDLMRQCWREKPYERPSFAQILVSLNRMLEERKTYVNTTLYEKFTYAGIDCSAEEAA

SMILES | pIC50 (Aurora1) | pIC50 (Aurora2) | pIC50 (CDK2/cycline E) | pIC50 (Tie2)
CN(NC(=O)c1cc2c(NC(=O)c3ccc(CN4CCCCC4)cc3)n[nH]c2s1)c1ccccc1 [Example 17a, N-[5-(N′-methyl-N′-phenylhydrazinocarbonyl)-1H-thieno[2,3-c]pyrazol-3-yl]-4-piperidin-1-ylmethylbenzamide] | 7.23 | 8.15 | 6.76 | 6.32
CN(NC(=O)c1cc2c(NC(=O)c3ccc(CN4CCCOCC4)cc3)n[nH]c2s1)c1ccc(Cl)cc1 [Example 21b, N-{5-[N′-(4-chlorophenyl)-N′-methylhydrazinocarbonyl]-1H-thieno[2,3-c]pyrazol-3-yl}-4-perhydro-1,4-oxazepin-4-ylmethylbenzamide] | 6.80 | 7.47 | 7.09 | 6.52
CC1CN(Cc2ccc(C(=O)Nc3n[nH]c4sc(C(=O)NN(C)c5ccc(Cl)cc5)cc34)cc2)CC(C)N1 (centres unmarked) [Example 11b, 4-(3,5-dimethylpiperazin-1-ylmethyl)-N-[5-(N′-(4-chlorophenyl)-N′-methylhydrazinocarbonyl)-1H-thieno[2,3-c]pyrazol-3-yl]-benzamide] | 6.67 | 7.14 | 7.11 | 6.15
CCc1ccccc1NNC(=O)c1cc2c(NC(=O)c3ccc(OC)cc3)n[nH]c2s1 [Example 5, N-{5-[N′-(2-ethylphenyl)hydrazinocarbonyl]-1H-thieno[2,3-c]pyrazol-3-yl}-4-methoxybenzamide] | 7.48 | 7.55 | 6.18 | 7.12
CN(NC(=O)c1cc2c(NC(=O)c3ccc(CN4CCNCC4)cc3)n[nH]c2s1)c1ccccc1 [Example 13a, N-[5-(N′-methyl-N′-phenylhydrazinocarbonyl)-1H-thieno[2,3-c]pyrazol-3-yl]-4-piperazin-1-ylmethylbenzamide] | 6.85 | 7.64 | 6.82 | 6.17
COc1ccc(C(=O)Nc2n[nH]c3sc(C(=O)NN(C)c4ccccc4)cc23)cc1 [Example 2] | 8.05 | 8.05 | 7.01 | 7.04

The remaining lines, values ahead:

pIC50 (Aurora1) | pIC50 (Aurora2) | pIC50 (CDK2/cycline E) | pIC50 (Tie2) | SMILES
7.68 | 8.22 | 6.70 | 6.97 | CN1CCCN(c2ccc(C(=O)Nc3n[nH]c4sc(C(=O)NN(C)c5ccccc5)cc34)cn2)CC1 [Example 44, 6-(4-methyl[1,4]diazepan-1-yl)-N-[5-(N′-methyl-N′-phenylhydrazinocarbonyl)-1H-thieno[2,3-c]pyrazol-3-yl]nicotinamide]
8.05 | 8.30 | 5.72 | 8.22 | CN1CCN(c2ccc(C(=O)Nc3n[nH]c4sc(C(=O)NN(CC5CCC5)c5ccc(Cl)cc5)cc34)cc2)CC1 [Example 36, N-{5-[N′-(4-chlorophenyl)-N′-cyclobutylmethylhydrazinocarbonyl]-1H-thieno[2,3-c]pyrazol-3-yl}-4-(4-methylpiperazin-1-yl)-benzamide]
7.29 | 7.51 | 6.17 | 6.53 | COc1ccc(C(=O)Nc2n[nH]c3sc(C(=O)NNc4ccccn4)cc23)cc1 [Example 27, 4-methoxy-N-[5-(N′-pyrid-2-ylhydrazinocarbonyl)-1H-thieno[2,3-c]pyrazol-3-yl]benzamide]
6.83 | 7.09 | 6.14 | 5.66 | CN(NC(=O)c1cc2c(NC(=O)c3cccc(CN4CCOCC4)c3)n[nH]c2s1)c1ccccc1 [Example 22a, N-[5-(N′-methyl-N′-phenylhydrazinocarbonyl)-1H-thieno[2,3-c]pyrazol-3-yl]-3-morpholin-4-ylmethylbenzamide]
7.96 | 7.77 | 6.98 | 7.60 | CCN(NC(=O)c1cc2c(NC(=O)c3ccc(N4CCN(C)CC4)cc3)n[nH]c2s1)c1cccc(C)c1 [Example 40, N-[5-(N′-ethyl-N′-m-tolylhydrazinocarbonyl)-1H-thieno[2,3-c]pyrazol-3-yl]-4-(4-methylpiperazin-1-yl)benzamide]
